Results from patent US20240148736A1, “COMBINATION DRUG FOR TREATING RENAL CANCER AND POTENTIATOR FOR THERAPEUTIC EFFECTS OF TYROSINE KINASE INHIBITOR” (Saitama Medical University, priority 2020, published 2024).

Key:
ACHN-R xenograft tumor = assay: Xenograft tumor model in nude mice; type: in vivo
Protocol: Male nude mice (BALB/c-nu/nu, 6 weeks old) were acquired from CLAIR Japan, Inc. The ACHN cells and the ACHN−R cells were each subjected to trypsinization, followed by washing with PBS. Then, 5×10^6 cells of the ACHN cells or the ACHN−R cells were dispersed in 150 μL of Matrigel (BD Biosciences), and were subcutaneously inoculated in each mouse. The size of the tumor was measured every day. The tumor volume (V) was determined by measuring the length (L) and the width (W), and inserting the measured values in the following equation.
When the volume of the engrafted tumor reached 180 mm^3, SUN (20 mg/kg) was orally administered to the mice inoculated with the ACHN cells, and SUN (20 mg/kg) alone or two drugs, SUN (20 mg/kg) and DPP4 inhibitor sitagliptin (SITA) (30 mg/kg), were orally administered to the randomly selected mice inoculated with the ACHN-R cells. […] The drug was administered in a cycle consisting of 2 consecutive days of administration, followed by 1 day of washout.
At the point when the volume of the ACHN or ACHN−R xenograft nude mouse tumor reached 180 mm^3, oral administration of SUN alone, or a combination of SUN and SITA was started.
The data was presented as the mean SD, and n=6. […] The tumor volume was estimated by measuring the size of the tumor with Vernier calipers. […] In FIGS. 6a and 6b, moreover, “k” represents P<0.05.
Ki67 immunohistochemical staining of the excised tumor of each group was carried out to determine a ratio of Ki67 positive cells (Ki67 index). […] The scale bar is 50 μm. […] In FIG. 6g, moreover, “*” represents P<0.05.
The expression level was evaluated by qRT-PCR. […] In FIGS. 6h to 6l, moreover, “*” represents P<0.05.

IL6 mRNA [1] = assay: IL6 mRNA level in 3D culture of 769-P-R cells (qRT-PCR); type: cell-based, human; conditions: SITA treatment versus vehicle, 769-P-R cells 3D culture
Protocol: (§1) Extraction of RNA, synthesis of cDNA, and quantitative reverse-transcription polymerase chain reaction (qRT-PCR) were carried out according to the methods disclosed in “[…], et al. ALDH1A1 in patient-derived bladder cancer spheroids activates retinoic acid signaling leading to TUBB3 overexpression and tumor progression. Int. J. Cancer 146, 1099-1113 (2019).” FIGS. 4k to 4l depict the results studying how SITA treatment affects the IL6 mRNA level in the 3D cultures of the ACHN-R cells (FIGS. 4k) and 769-P-R cells (FIG. 4l), which are both SUN resistant cells. […] In FIGS. 4k to 4l, moreover, “*” represents P<0.05.

ACHN cells = assay: 3D spheroid proliferation / cell survival rate assay; type: cell-based, human; conditions: SITA alone, dose-response
Protocol: (§2) ACHN and 769-P, which were human RCC cell lines, were acquired from the American Type Culture Collection (ATCC), and those authenticated by short tandem repeat (STR) analysis performed by BEX CO., LTD. were used. The ACHN and 769-P cells were cultured on a DEME medium and a PRMI medium (NACALI TESQUE, INC.), respectively, to both of which 10% of FBS, 100 U/mL of penicillin, and 100 μg/mL of streptomycin were added, using an incubator set at 37° C. and 5% CO2. The ACHN and 769-P cells were exposed to sunitinib (SUN) at 10 μM max., for 6 months or longer, to produce SUN resistant RCC cell lines, ACHN-R and 769-P-R, respectively.
(§3) A cell survival rate of the cells 3 days after the drug treatment and siRNA transfection was evaluated by CellTiter-Glo 3D Assay (Promega K.K.).
(§4) FIG. 4a depicts the results of ACHN-R and the parent cell line thereof. FIG. 4b depicts the results of 769-P-R and the parent cell line thereof. […] In FIGS. 4a to 4b, moreover, “ns” represents “no significant difference.”
(§5) FIGS. 4m to 4n are diagrams depicting the results studying how the DPP4 overexpression affects the cell survival rate of the RCC spheroids treated with SUN. ACHN cells (FIG. 4m) and 769-P cells (FIG. 4n), each stably expressing a control vector (vector #1 or #2) or DPP4 (DPP4 #1 or #2) were treated with SUN, and were analyzed by an ATP-based luciferase assay. […]

769-P cells = assay: as above; type: cell-based, human; conditions: SITA alone, dose-response
Protocol: as §2, §3, §4, §5

IL6 mRNA [2] = assay: IL6 mRNA level in 3D culture of ACHN-R cells (qRT-PCR); type: cell-based, human; conditions: SITA treatment versus vehicle, ACHN-R cells 3D culture
Protocol: as §1

RCC-B spheroids = assay: Cell survival rate assay on spheroid culture (CellTiter-Glo 3D); type: cell-based, human; conditions: SITA (100 μM) in combination with SUN, third day
Description: (§6) After attaining the informed consent from the patients at Saitama Medical Center, Saitama Medical University, patient-derived cells (PDC) were produced from the tumors excised from the RCC patients. The tumor samples were processed with reference to the literature (Namekawa, T, et al. ALDH1A1 in patient-derived bladder cancer spheroids activates retinoic acid signaling leading to TUBB3 overexpression and tumor progression. Int. J. Cancer 146, 1099-1113 (2019)). The protocol of the research was approved by the Ethics Committee of Saitama Medical Center, Saitama Medical University (No. 1363-IV).
as §3
(§7) FIGS. 2b to 2c depict the results of treating the RCC-A spheroids and the RCC-B spheroids with SITA (100 μM) and SUN. The data was presented as the mean value ±SD of the relative luciferase activity as analyzed by an ATP-based luciferase assay. […] In FIGS. 2b to 2c, moreover, “*” represents P<0.05.
(§8) The production of the spheroid ATP in the RCC-A cells or RCC-B cells treated with SUN alone or a combination of SUN and SITA on the third day was measured with the luciferase activity using the CEllTiter-Glo. […]

RCC-A spheroids = assay: as above; type: cell-based, human; conditions: SITA (100 μM) in combination with SUN, third day
Description: as §6, §3, §7, §8

ACHN-R cells = assay: 3D spheroid proliferation / cell survival rate assay; type: cell-based, human
Protocol: as §2, §3, §4
(§9) FIGS. 4c to 4f are diagrams depicting the results of studying the effect of the combination of SITA and SUN in the 3D culture of the ACHN cells (FIG. 4c), ACHN-R cells (FIG. 4d), 769-P cells (FIG. 4e), or 769-P-R cells (FIG. 4f). The concentration of SITA used was 100 μM. […] In FIGS. 4c, 4d, and 4f, moreover, […] represents P<0.05.
(§10) FIGS. 4g to 4j are diagrams depicting the results studying how the DPP4 knockdown by siRNA affects the therapeutic effects of SUN in the 3D culture of the ACHN cells (FIG. 4g), ACHN−R cells (FIG. 4h), 769-P cells (FIG. 4i), or 769-P-R cells (FIG. 4j). The data was represented as the means value±SD of the relative luciferase activity of each group of the spheroids, and n=3. […] In FIGS. 4h to 4j, moreover, “*” represents P<0.05.

769-P-R cells = assay: as above; type: cell-based, human
Protocol: as §2, §3, §4, §9, §10

[3] = combination of SUN and SITA (100 μM)

Q: `N[C@@H](CC(=O)N1CCn2c(nnc2C(F)(F)F)C1)Cc1cc(F)c(F)cc1F` [SITA, sitagliptin] was tested. Which “Ki67 index (ratio of Ki67 positive cells)” value (ACHN-R xenograft tumor; SITA and SUN in combination, ACHN-R xenograft tumor) did it give?
A: The value was “reduced the Ki67 index”.

Q: What about the “sunitinib resistance of the RCC xenograft tumor” value (ACHN-R xenograft tumor; SITA in combination with SUN) of the same compound?
A: The value was “contributed to overturn the sunitinib resistance”.

Q: And the “expression of IL6 (mRNA level) in tumor” value (ACHN-R xenograft tumor; SITA in combination with SUN, ACHN-R xenograft tumor)?
A: Its value is “expression of IL6 decreased”.

Q: What about the “proliferation of the tumor (tumor volume, tumor weight)” value (ACHN-R xenograft tumor; SUN (20 mg/kg) and SITA (30 mg/kg) orally in combination, ACHN-R xenograft, 13th day) of the same compound?
A: The value was “proliferation of the tumor was suppressed to the similar degree to the ACHN xenograft tumor”.

Q: And the “IL6 mRNA level” value (IL6 mRNA [1])?
A: The value was “reduced the expression of mRNA of IL6”.

Q: What about the spheroid proliferation (ACHN cells) of the same compound?
A: Its spheroid proliferation is “did not affect the spheroid proliferation”.

Q: What about the spheroid proliferation (769-P cells) of the same compound?
A: The spheroid proliferation was “did not affect the spheroid proliferation”.

Q: And the “IL6 mRNA level” value (IL6 mRNA [2])?
A: The value was “reduced the expression of mRNA of IL6”.

Q: And the “proliferation inhibition effect owing to SUN (cell survival rate, relative luciferase activity)” value (RCC-B spheroids)?
A: The value was “proliferation inhibition effect owing to SUN was enhanced”.

Q: And the “proliferation inhibition effect owing to SUN (cell survival rate, relative luciferase activity)” value (RCC-A spheroids)?
A: Its value is “proliferation inhibition effect owing to SUN was enhanced”.

Q: What about the spheroid proliferation (ACHN-R cells; SITA alone, dose-response) of the same compound?
A: Its spheroid proliferation is “did not affect the spheroid proliferation”.

Q: And the spheroid proliferation (ACHN-R cells; [3])?
A: The spheroid proliferation was “suppressed the spheroid proliferation”.

Q: And the spheroid proliferation (769-P-R cells; SITA alone, dose-response)?
A: Its spheroid proliferation is “did not affect the spheroid proliferation”.

Q: And the spheroid proliferation (769-P-R cells; [3])?
A: Its spheroid proliferation is “suppressed the spheroid proliferation”.
